From patent publication US20090324742A1, “Peham dendrimers as excipients” (priority 2006, published 2009) come the findings set out here.

Converted amounts (≈) assume the structure as drawn.

For orientation: solubility means the dissolved amount per volume that the medium holds. Read a high solubility as much dissolved substance.

Series [1] in a line: Solubility enhancement of vitamin D3 by PEHAM dendritic polymers (HPLC). Format: physicochemical. To be noted: pure Active Material control without dendrimer; detection limit. Here is the method:
An excess of the cosmetic and nutrient Active Material, vitamin D3, (Sigma) was added to vials containing PEHAM dendritic polymers G=1.0 and G=2.0 with PETGE or TMPTGE cores and amine surfaces, partially PEGylated (25% PEG-550) amine surfaces, or carboxylate surfaces, dissolved in 20% (v/v) aqueous methanol at 1 wt % concentrations. These suspensions were briefly ultrasonicated in a water bath at RT, then incubated overnight at 32° C. and 100 rpm in a shaking water bath, and allowed to equilibrate at RT. The suspensions were filtered through a 0.2-μm Nylon syringe filter to remove not encapsulated Active Material. Solvent was removed and the residue redispersed in DI water. The samples were analyzed for dendrimer-associated vitamin D3 by HPLC. Association results are expressed in ng Active Material per mL solution. […] The pure Active Material as control remains below detection limit of 50 ng/mL.

Series [2] is described as follows: Aqueous solubility of paclitaxel with PEHAM dendritic polymer (HPLC). Type of series: physicochemical. Particulars: DI water without dendrimer, thermodynamic from solid. Here is the method:
The sample was subjected to brief ultrasonication and heating at 50° C. for 10 mins., followed by overnight shaking at RT. The sample was then centrifuged for 5 mins. and the paclitaxel content measured by HPLC.

As to `C=C1CC[C@H](O)C/C1=C/C=C1\CCC[C@]2(C)[C@@H]([C@H](C)CCCC(C)C)CC[C@@H]12` [vitamin D3], in series [1], the “vitamin D3 solubility” value is less than 0.05 µg/mL.
In turn, `CC(=O)O[C@H]1C(=O)[C@@]2(C)[C@H]([C@H](OC(=O)c3ccccc3)[C@]3(O)C[C@H](OC(=O)[C@H](O)[C@@H](NC(=O)c4ccccc4)c4ccccc4)C(C)=C1C3(C)C)[C@]1(OC(C)=O)CO[C@@H]1C[C@@H]2O` [paclitaxel] showed a solubility in series [2] of 0.3 µg/mL (≈ 0.351 µM).
